Measurements published in ChEMBL document CHEMBL1128144, “Cyclic sulfone-3-carboxamides as novel P2-ligands for Ro 31-8959 based HIV-1 protease inhibitors” (Bioorg Med Chem Lett, 1995).

system: MT4; experiment: Inhibitory activity against HIV-1 in MT-4 lymphoid cells infected with IIIb; type: functional; conditions: Homo sapiens, read-out: CIC95

**Q.** Which IC95 does the source give for `CC(C)(C)NC(=O)[C@@H]1C[C@@H]2CCCC[C@@H]2CN1C[C@@H](O)[C@H](Cc1ccccc1)NC(=O)[C@@H]1CCCS(=O)(=O)C1` here?
**A.** Its IC95 is 200 nM.

**Q.** `CC(C)(C)NC(=O)[C@@H]1C[C@@H]2CCCC[C@@H]2CN1C[C@@H](O)[C@H](Cc1ccccc1)NC(=O)[C@H]1CCCS(=O)(=O)C1` was tested. Which IC95 did it give?
**A.** Its IC95 is 400 nM.

biological target: Human immunodeficiency virus type 1 protease (Human immunodeficiency virus 1, UniProt Q72874); experiment: Inhibition of HIV-1 Protease; conditions: not given

**Q.** With `CC(C)(C)NC(=O)[C@@H]1C[C@@H]2CCCC[C@@H]2CN1C[C@@H](O)[C@H](Cc1ccccc1)NC(=O)[C@H]1CCCSC1` as the compound, how does the IC50 read?
**A.** The IC50 was 98.8 nM.

**Q.** How did the IC50 turn out when `CC(C)(C)NC(=O)[C@@H]1C[C@@H]2CCCC[C@@H]2CN1C[C@@H](O)[C@H](Cc1ccccc1)NC(=O)C1=CCCS(=O)(=O)C1` was run?
**A.** The IC50 was 54.7 nM.

**Q.** With `CC(C)(C)NC(=O)[C@@H]1C[C@@H]2CCCC[C@@H]2CN1C[C@@H](O)[C@H](Cc1ccccc1)NC(=O)[C@H]1CCS(=O)(=O)C1` as the compound, how does the IC50 read?
**A.** The IC50 was 193 nM.

**Q.** `CC(C)(C)NC(=O)[C@@H]1C[C@@H]2CCCC[C@@H]2CN1C[C@@H](O)[C@H](Cc1ccccc1)NC(=O)C1=CCCSC1` was tested. Which IC50 did it give?
**A.** The IC50 was 167 nM.

**Q.** Which IC50 does the source give for `CC(C)(C)NC(=O)[C@@H]1C[C@@H]2CCCC[C@@H]2CN1C[C@@H](O)[C@H](Cc1ccccc1)NC(=O)[C@@H]1CCS(=O)(=O)C1` here?
**A.** Its IC50 is 200 nM.

**Q.** `CC(C)(C)NC(=O)[C@@H]1C[C@@H]2CCCC[C@@H]2CN1C[C@@H](O)[C@H](Cc1ccccc1)NC(=O)[C@@H]1CCSC1` was tested. Which IC50 did it give?
**A.** Its IC50 is 342 nM.

**Q.** How did the IC50 turn out when `CC(C)(C)NC(=O)[C@@H]1C[C@@H]2CCCC[C@@H]2CN1C[C@@H](O)[C@H](Cc1ccccc1)NC(=O)[C@@H]1CCCSC1` was run?
**A.** Its IC50 is 78.4 nM.

**Q.** How did the IC50 turn out when `CC(C)(C)NC(=O)[C@@H]1C[C@@H]2CCCC[C@@H]2CN1C[C@@H](O)[C@H](Cc1ccccc1)NC(=O)[C@@H]1CCCS(=O)(=O)C1` was run?
**A.** The IC50 was 9.2 nM.

**Q.** `CC(C)(C)NC(=O)[C@@H]1C[C@@H]2CCCC[C@@H]2CN1C[C@@H](O)[C@H](Cc1ccccc1)NC(=O)[C@H]1CCCS(=O)(=O)C1` was tested. Which IC50 did it give?
**A.** Its IC50 is 23.5 nM.

**Q.** For `CC(C)(C)NC(=O)[C@@H]1C[C@@H]2CCCC[C@@H]2CN1C[C@@H](O)[C@H](Cc1ccccc1)NC(=O)[C@H]1CCSC1`, which IC50 is on record?
**A.** Its IC50 is 650 nM.
